In patent US12435059B2, “AMP-activated protein kinase inhibitors and methods of making and using the same” (The Regents of the University of Colorado, priority 2019, dated 2025):
Like-named read-outs stand apart in the source and are kept apart here.

Key:
Experiment in all cases: biochemical
Assay type in all cases: binding
468 kinases [1] = target: 468 kinases (Homo sapiens, UniProt O00141); settings: SGK; read-out: % Inhibition @ 100 nM
468 kinases [2] = target: 468 kinases (Homo sapiens, UniProt O14578); settings: CIT; read-out: % Inhibition @ 100 nM
468 kinases [3] = target: 468 kinases (Homo sapiens, UniProt O60285); settings: ARK5; read-out: % Inhibition @ 100 nM
468 kinases [4] = target: 468 kinases (Homo sapiens, UniProt P00519, Q252H); settings: read-out: % Inhibition @ 100 nM
468 kinases [5] = target: 468 kinases (Homo sapiens, UniProt P04049); settings: RAF1; read-out: % Inhibition @ 100 nM
468 kinases [6] = target: 468 kinases (Homo sapiens, UniProt P10721, L576P); settings: KIT(L576P); read-out: % Inhibition @ 100 nM
468 kinases (Homo sapiens, UniProt P10721, L576P), sequence (P10721 26-976 L576P limits assumed): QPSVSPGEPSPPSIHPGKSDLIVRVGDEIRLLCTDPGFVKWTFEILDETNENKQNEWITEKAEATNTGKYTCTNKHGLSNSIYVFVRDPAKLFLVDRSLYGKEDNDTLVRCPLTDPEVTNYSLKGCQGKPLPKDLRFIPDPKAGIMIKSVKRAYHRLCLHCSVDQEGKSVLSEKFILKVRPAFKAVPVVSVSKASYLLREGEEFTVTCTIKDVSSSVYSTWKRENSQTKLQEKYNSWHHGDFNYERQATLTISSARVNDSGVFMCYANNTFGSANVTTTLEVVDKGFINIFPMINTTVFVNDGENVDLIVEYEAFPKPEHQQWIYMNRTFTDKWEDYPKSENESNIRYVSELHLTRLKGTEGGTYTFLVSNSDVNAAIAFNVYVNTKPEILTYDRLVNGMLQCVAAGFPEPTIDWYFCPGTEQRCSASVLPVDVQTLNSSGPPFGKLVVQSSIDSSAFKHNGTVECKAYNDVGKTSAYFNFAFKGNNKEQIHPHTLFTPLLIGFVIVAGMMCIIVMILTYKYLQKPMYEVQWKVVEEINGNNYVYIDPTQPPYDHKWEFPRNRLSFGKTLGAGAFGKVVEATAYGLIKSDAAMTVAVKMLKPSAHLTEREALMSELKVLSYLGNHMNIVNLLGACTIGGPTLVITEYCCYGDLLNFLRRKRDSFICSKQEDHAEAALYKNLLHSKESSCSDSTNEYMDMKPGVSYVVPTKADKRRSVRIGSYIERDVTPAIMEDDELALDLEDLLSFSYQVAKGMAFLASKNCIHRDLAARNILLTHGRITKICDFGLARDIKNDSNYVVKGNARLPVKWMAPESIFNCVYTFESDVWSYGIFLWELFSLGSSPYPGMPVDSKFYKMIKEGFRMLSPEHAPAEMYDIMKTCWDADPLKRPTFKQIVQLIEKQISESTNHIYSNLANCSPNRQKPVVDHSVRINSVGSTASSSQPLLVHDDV

468 kinases [7] = target: 468 kinases (Homo sapiens, UniProt P23443); settings: S6K1; read-out: % Inhibition @ 100 nM
468 kinases [8] = target: 468 kinases (Homo sapiens, UniProt P29376); settings: LTK; read-out: % Inhibition @ 100 nM
468 kinases [9] = target: 468 kinases (Homo sapiens, UniProt P35916); settings: FLT4; read-out: % Inhibition @ 100 nM
468 kinases (Homo sapiens, UniProt P35916), sequence (P35916 25-1363 limits assumed): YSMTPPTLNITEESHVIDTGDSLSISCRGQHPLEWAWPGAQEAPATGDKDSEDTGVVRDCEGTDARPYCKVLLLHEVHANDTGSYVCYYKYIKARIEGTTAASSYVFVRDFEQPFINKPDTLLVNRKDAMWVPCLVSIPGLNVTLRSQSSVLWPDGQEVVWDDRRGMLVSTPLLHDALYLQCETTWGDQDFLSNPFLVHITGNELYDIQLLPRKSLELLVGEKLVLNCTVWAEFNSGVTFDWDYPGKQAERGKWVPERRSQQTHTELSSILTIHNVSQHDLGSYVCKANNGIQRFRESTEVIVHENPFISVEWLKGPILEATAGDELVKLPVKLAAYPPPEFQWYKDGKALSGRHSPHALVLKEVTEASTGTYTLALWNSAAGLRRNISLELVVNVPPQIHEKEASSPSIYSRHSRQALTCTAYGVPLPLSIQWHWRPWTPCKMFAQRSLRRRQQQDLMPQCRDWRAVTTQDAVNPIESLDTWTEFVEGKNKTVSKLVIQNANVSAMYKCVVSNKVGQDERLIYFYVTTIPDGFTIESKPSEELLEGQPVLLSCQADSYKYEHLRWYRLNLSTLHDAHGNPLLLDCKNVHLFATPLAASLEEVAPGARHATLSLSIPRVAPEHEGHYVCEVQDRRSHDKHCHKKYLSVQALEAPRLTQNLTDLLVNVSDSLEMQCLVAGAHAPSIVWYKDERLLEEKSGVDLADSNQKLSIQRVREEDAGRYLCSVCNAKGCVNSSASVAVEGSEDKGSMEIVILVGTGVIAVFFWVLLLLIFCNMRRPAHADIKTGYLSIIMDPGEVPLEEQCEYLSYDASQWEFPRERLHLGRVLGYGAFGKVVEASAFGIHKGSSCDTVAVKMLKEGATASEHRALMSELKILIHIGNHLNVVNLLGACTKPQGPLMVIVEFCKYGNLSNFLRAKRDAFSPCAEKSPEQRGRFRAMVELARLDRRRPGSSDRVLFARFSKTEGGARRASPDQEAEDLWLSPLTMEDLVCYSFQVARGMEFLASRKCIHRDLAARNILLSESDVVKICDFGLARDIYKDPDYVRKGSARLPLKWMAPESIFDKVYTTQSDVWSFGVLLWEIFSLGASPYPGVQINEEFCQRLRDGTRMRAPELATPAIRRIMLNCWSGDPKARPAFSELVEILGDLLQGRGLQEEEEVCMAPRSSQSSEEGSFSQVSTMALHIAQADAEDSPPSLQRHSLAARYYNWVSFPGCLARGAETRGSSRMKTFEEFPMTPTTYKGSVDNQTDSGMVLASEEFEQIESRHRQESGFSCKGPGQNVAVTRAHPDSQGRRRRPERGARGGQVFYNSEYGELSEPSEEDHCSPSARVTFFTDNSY

468 kinases [10] = target: 468 kinases (Homo sapiens, UniProt P36507); settings: MEK2; read-out: % Inhibition @ 100 nM
468 kinases [11] = target: 468 kinases (Homo sapiens, UniProt P36888, D835V); settings: FLT3(D835V); read-out: % Inhibition @ 100 nM
468 kinases [12] = target: 468 kinases (Homo sapiens, UniProt P37023); settings: ACVRL1; read-out: % Inhibition @ 100 nM
468 kinases [13] = target: 468 kinases (Homo sapiens, UniProt P42336, C420R); settings: PIK3CA(C420R); read-out: % Inhibition @ 100 nM
468 kinases [14] = target: 468 kinases (Homo sapiens, UniProt P42345); settings: MTOR; read-out: % Inhibition @ 100 nM
468 kinases [15] = target: 468 kinases (Homo sapiens, UniProt P42680); settings: TEC; read-out: % Inhibition @ 100 nM
468 kinases [16] = target: 468 kinases (Homo sapiens, UniProt P42681); settings: TXK; read-out: % Inhibition @ 100 nM
468 kinases [17] = target: 468 kinases (Homo sapiens, UniProt P45985); settings: MEK4; read-out: % Inhibition @ 100 nM
468 kinases (Homo sapiens, UniProt P45985), sequence (P45985 2-399 limits assumed): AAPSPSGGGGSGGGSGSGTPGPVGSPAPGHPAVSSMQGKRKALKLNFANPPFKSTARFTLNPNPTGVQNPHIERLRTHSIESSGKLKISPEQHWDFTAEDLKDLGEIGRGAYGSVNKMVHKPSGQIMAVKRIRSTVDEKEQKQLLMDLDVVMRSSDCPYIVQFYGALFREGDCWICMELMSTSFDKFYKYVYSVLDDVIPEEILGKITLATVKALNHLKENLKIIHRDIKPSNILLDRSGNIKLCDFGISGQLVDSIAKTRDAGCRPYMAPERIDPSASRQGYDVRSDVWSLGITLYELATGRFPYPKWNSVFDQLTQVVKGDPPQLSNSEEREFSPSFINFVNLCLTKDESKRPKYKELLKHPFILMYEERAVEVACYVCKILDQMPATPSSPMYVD

468 kinases [18] = target: 468 kinases (Homo sapiens, UniProt P48730); settings: CSNK1D; read-out: % Inhibition @ 100 nM
468 kinases [19] = target: 468 kinases (Homo sapiens, UniProt P51957); settings: NEK4; read-out: % Inhibition @ 100 nM
468 kinases [20] = target: 468 kinases (Homo sapiens, UniProt P54762); settings: EPHB1; read-out: % Inhibition @ 100 nM
468 kinases [21] = target: 468 kinases (Homo sapiens, UniProt Q07912); settings: TNK2; read-out: % Inhibition @ 100 nM
468 kinases [22] = target: 468 kinases (Homo sapiens, UniProt Q13164); settings: ERK5; read-out: % Inhibition @ 100 nM
468 kinases (Homo sapiens, UniProt Q13164), sequence (Q13164 2-816 limits assumed): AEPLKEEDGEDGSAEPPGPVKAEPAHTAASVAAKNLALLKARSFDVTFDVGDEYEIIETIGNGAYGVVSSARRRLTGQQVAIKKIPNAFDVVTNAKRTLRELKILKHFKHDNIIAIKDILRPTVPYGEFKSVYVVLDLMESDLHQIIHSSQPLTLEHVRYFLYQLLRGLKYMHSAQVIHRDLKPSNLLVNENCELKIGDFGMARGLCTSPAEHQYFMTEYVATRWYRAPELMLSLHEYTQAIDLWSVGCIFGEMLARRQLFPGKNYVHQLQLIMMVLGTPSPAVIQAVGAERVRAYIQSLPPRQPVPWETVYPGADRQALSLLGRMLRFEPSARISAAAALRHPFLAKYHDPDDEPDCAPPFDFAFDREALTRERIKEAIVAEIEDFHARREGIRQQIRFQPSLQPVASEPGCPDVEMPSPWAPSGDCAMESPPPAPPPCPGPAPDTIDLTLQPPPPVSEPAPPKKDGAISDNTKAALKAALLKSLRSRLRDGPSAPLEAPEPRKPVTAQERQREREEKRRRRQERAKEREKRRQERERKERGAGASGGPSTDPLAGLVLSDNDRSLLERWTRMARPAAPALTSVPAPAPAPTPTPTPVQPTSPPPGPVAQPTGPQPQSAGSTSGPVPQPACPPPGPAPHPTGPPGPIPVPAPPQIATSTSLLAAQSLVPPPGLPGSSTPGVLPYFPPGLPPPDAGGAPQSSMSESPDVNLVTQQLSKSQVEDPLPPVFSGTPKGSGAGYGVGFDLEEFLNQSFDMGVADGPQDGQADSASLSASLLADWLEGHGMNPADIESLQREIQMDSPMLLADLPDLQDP

468 kinases [23] = target: 468 kinases (Homo sapiens, UniProt Q6ZWH5); settings: NEK10; read-out: % Inhibition @ 100 nM
468 kinases [24] = target: 468 kinases (Homo sapiens, UniProt Q86Y07); settings: VRK2; read-out: % Inhibition @ 100 nM
468 kinases [25] = target: 468 kinases (Homo sapiens, UniProt Q8IU85); settings: CAMK1D; read-out: % Inhibition @ 100 nM
468 kinases [26] = target: 468 kinases (Homo sapiens, UniProt Q8NI60); settings: ADCK3; read-out: % Inhibition @ 100 nM
468 kinases (Homo sapiens, UniProt Q8NI60), sequence (Q8NI60 163-647 limits assumed): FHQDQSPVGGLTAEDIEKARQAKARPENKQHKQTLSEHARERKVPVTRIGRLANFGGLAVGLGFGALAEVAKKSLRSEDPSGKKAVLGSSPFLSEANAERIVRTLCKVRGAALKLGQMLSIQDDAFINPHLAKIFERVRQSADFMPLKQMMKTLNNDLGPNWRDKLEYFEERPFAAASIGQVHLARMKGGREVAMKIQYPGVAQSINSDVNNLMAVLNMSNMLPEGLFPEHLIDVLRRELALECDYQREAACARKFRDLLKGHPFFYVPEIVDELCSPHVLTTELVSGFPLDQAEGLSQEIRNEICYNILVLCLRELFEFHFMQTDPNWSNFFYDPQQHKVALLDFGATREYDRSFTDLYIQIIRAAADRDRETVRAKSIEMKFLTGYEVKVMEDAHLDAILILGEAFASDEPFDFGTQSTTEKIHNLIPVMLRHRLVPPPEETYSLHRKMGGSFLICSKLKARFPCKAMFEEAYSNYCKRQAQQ

468 kinases [27] = target: 468 kinases (Homo sapiens, UniProt Q8TDR2); settings: STK35; read-out: % Inhibition @ 100 nM
468 kinases [28] = target: 468 kinases (Homo sapiens, UniProt Q8WTQ7); settings: GRK7; read-out: % Inhibition @ 100 nM
468 kinases [29] = target: 468 kinases (Homo sapiens, UniProt Q9C098); settings: DCAMKL3; read-out: % Inhibition @ 100 nM
468 kinases [30] = target: 468 kinases (Homo sapiens, UniProt Q9H2K8); settings: TAOK3; read-out: % Inhibition @ 100 nM
468 kinases [31] = target: 468 kinases (Homo sapiens, UniProt Q9P286); settings: PAK7; read-out: % Inhibition @ 100 nM
468 kinases [32] = target: 468 kinases (Homo sapiens, UniProt Q9Y243); settings: AKT3; read-out: % Inhibition @ 100 nM
468 kinases (Homo sapiens, UniProt Q9Y243), sequence (Q9Y243 2-479 limits assumed): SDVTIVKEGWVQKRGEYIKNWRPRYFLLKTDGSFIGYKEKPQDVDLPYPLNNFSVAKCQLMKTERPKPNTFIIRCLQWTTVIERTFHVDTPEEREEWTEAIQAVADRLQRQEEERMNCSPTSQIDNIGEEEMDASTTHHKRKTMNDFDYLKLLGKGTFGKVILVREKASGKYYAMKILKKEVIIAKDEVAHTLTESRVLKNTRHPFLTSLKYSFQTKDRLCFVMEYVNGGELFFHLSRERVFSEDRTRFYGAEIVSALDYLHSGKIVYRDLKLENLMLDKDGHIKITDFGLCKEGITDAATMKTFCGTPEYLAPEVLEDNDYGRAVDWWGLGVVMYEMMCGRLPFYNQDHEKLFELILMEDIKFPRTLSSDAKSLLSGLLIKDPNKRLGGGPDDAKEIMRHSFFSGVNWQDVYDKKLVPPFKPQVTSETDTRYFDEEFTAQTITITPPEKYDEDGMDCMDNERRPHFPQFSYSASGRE

468 kinases [33] = target: 468 kinases (Plasmodium falciparum, UniProt P62344); settings: PFCDPK1 (P.falciparum); read-out: % Inhibition @ 100 nM
468 kinases (Plasmodium falciparum, UniProt P62344), sequence (P62344 2-524 limits assumed): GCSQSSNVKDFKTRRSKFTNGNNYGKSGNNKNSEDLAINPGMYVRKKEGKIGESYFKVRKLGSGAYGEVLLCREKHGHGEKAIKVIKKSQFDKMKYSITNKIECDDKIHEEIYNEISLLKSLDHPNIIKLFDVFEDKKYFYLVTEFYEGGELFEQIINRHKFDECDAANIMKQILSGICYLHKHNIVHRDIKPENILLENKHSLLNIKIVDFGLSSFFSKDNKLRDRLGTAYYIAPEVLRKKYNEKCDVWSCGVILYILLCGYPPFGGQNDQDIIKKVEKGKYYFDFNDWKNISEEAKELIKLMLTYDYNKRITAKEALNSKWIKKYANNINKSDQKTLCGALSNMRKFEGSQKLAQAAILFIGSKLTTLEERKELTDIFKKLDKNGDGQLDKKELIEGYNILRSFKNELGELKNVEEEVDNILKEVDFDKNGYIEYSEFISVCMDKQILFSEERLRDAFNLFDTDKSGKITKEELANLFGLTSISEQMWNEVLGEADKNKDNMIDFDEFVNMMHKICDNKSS

Row | Structure (SMILES) | inhibition at 0.1 µM (468 kinases [1]) [%] | inhibition at 0.1 µM (468 kinases [2]) [%] | inhibition at 0.1 µM (468 kinases [3]) [%] | inhibition at 0.1 µM (468 kinases [4]; ABL1 (Q252H)-nonphosphorylated) [%] | inhibition at 0.1 µM (468 kinases [4]; ABL1 (Q252H)-phosphorylated) [%] | inhibition at 0.1 µM (468 kinases [5]) [%] | inhibition at 0.1 µM (468 kinases [6]) [%] | inhibition at 0.1 µM (468 kinases [7]) [%] | inhibition at 0.1 µM (468 kinases [8]) [%] | inhibition at 0.1 µM (468 kinases [9]) [%] | inhibition at 0.1 µM (468 kinases [10]) [%] | inhibition at 0.1 µM (468 kinases [11]) [%] | inhibition at 0.1 µM (468 kinases [12]) [%] | inhibition at 0.1 µM (468 kinases [13]) [%] | inhibition at 0.1 µM (468 kinases [14]) [%] | inhibition at 0.1 µM (468 kinases [15]) [%] | inhibition at 0.1 µM (468 kinases [16]) [%] | inhibition at 0.1 µM (468 kinases [17]) [%] | inhibition at 0.1 µM (468 kinases [18]) [%] | inhibition at 0.1 µM (468 kinases [19]) [%] | further results
1 | CCN(CC)CCNC(=O)c1c(C)[nH]c(/C=C2\C(=O)Nc3ccc(CCO)cc32)c1C [Compound No. 10, (Z)—N-(2-(Diethylamino)ethyl)-5-((5-(2-hydroxyethyl)-2-oxoindolin-3-ylidene)methyl)-2,4-dimethyl-1H-pyrrole-3-carboxamide] | 2 | 4 | 84 | 33 | 19 | 9 | 88 | 37 | 8 | 27 | 90.4 | 100 | 0 | 0 | 0 | 0 | 10 | 0 | 29 | 0 | inhibition at 0.1 µM (468 kinases [20]): 0%; inhibition at 0.1 µM (468 kinases [21]): 0%; inhibition at 0.1 µM (468 kinases [22]): 6%; inhibition at 0.1 µM (468 kinases [23]): 10%; inhibition at 0.1 µM (468 kinases [24]): 0%; inhibition at 0.1 µM (468 kinases [25]): 0%; inhibition at 0.1 µM (468 kinases [26]): 8%; inhibition at 0.1 µM (468 kinases [27]): 21%; inhibition at 0.1 µM (468 kinases [28]): 40%; inhibition at 0.1 µM (468 kinases [29]): 73%; inhibition at 0.1 µM (468 kinases [30]): 31%; inhibition at 0.1 µM (468 kinases [31]): 0%; inhibition at 0.1 µM (468 kinases [32]): 47%; inhibition at 0.1 µM (468 kinases [33]): 0%
2 | CCN(CC)CCNC(=O)c1c(C)[nH]c(/C=C2\C(=O)Nc3ccc(CCC(N)=O)cc32)c1C [Compound No. 16, (Z)-5-((5-(3-Amino-3-oxopropyl)-2-oxoindolin-3-ylidene)methyl)-N-(2-(diethylamino)ethyl)-2,4-dimethyl-1H-pyrrole-3-carboxamide] | 47 | 0 | 71 | 55 | 54 | 0 | 12 | 33 | 0 | 56 | 83 | 100 | 0 | 31 | 6 | 0 | 16 | 97.7 | 9 | 9 | inhibition at 0.1 µM (468 kinases [20]): 8%; inhibition at 0.1 µM (468 kinases [21]): 20%; inhibition at 0.1 µM (468 kinases [22]): 100%; inhibition at 0.1 µM (468 kinases [23]): 20%; inhibition at 0.1 µM (468 kinases [24]): 39%; inhibition at 0.1 µM (468 kinases [25]): 6%; inhibition at 0.1 µM (468 kinases [26]): 8%; inhibition at 0.1 µM (468 kinases [27]): 15%; inhibition at 0.1 µM (468 kinases [28]): 76%; inhibition at 0.1 µM (468 kinases [29]): 88%; inhibition at 0.1 µM (468 kinases [30]): 56%; inhibition at 0.1 µM (468 kinases [31]): 11%; inhibition at 0.1 µM (468 kinases [32]): 17%; inhibition at 0.1 µM (468 kinases [33]): 14%
